Results taken from patent US10499637B2, “Compositions comprising flavonoid-containing extracts from plants of the genus citrus and/or isolated citrus flavonoids and specific cationic surface active agents, and said composition for use as an agent for treating infestations with head lice” (MEDA AB, priority 2009, dated 2019).

Columns and labels:
[1] = system: Head lice, Pediculus humanus capitis; assay: Test 1: in-vitro assay with head lice, test substances in basic solution; conditions: for Vitality of the lice after 120 min: dead / Vitality of the lice after 360 min: dead: number of dead lice of 5 incubated; for Vitality of the lice after 120 min: dead / Vitality of the lice after 360 min: dead / Vitality of the lice after 30 min: immobile / Vitality of the lice after 120 min: mobile / Vitality of the lice after 360 min: mobile: basic solution; for Vitality of the lice after 30 min: immobile: number of immobile lice of 5 incubated; for Vitality of the lice after 30 min: mobile / Vitality of the lice after 120 min: mobile / Vitality of the lice after 360 min: mobile: number of mobile lice of 5 incubated; for Vitality of the lice after 30 min: mobile: basic solution 10% lauryl glucoside, 5% glycerin, pH 6.0
Procedure: Head lice, Pediculus humanus capitis, were obtained by combing infested children from whom assent and consent from the parents had been obtained.
Lice were used for the experiments mostly immediately, but not later than 4 hours after removing from the head. Adult lice, mixed sexes, were fully immersed in the test solutions for 3 to 15 minutes, then thoroughly rinsed with plenty of water to remove any residuals of the test medication. Three replicates of 5 or 10 lice each, plus one control for each batch of lice, were used for any test formulation. The lice were transferred to dry filter paper and kept for observation for up to 24 hours.
The solutions were formulated by addition of the tests substances listed in Table 1 to a basic solution consisting of 10% lauryl glucoside, 5% glycerin and purified water ad 100% and adjusted to pH 6.0 with citric acid. In each test solution 5 lice were incubated, in the controls consisting of the basic solution without any additions 10 lice were incubated.
“Dead” means that neither movements of the legs nor of the intestine were observed.
At 30 min only mobile or immobile lice were observed, whereas dead lice were observed only at 120 and 360 min.

Aedes aegypti larvae = assay: Naringin against Aedes aegypti larvae, experiments in applicant's laboratory; conditions: thousand fold higher concentration of naringin than in the literature, without acetonitrile in the assay
Text: A putative insecticidal activity of naringin is of interest in the present context.

Structure (SMILES) | Vitality of the lice after 120 min: dead [1] | Vitality of the lice after 360 min: dead [1] | Vitality of the lice after 30 min: immobile [1] | Vitality of the lice after 30 min: mobile [1] | Vitality of the lice after 120 min: mobile [1] | Vitality of the lice after 360 min: mobile [1] | killing of Aedes aegypti larvae (Aedes aegypti larvae)
COc1ccc([C@@H]2CC(=O)c3c(O)cc(O)cc3O2)cc1O [1.0% hesperetin, (S)-2,3-dihydro-5,7-dihydroxy-2-(3-hydroxy-4-methoxyphenyl)-4H-1-benzopyran-4-one] | 0 | 0 | 0 | 5 | 5 | 5 | 
CCCCCCCCCCCCCCCCCCCCCC[N+](C)(C)C.[Cl-] [2.0% behentrim., behentrimonium chloride] | 0 | 0 | 0 | 5 | 5 | 5 | 
C[C@@H]1O[C@@H](O[C@H]2[C@H](Oc3cc(O)c4c(c3)O[C@H](c3ccc(O)cc3)CC4=O)O[C@H](CO)[C@@H](O)[C@@H]2O)[C@H](O)[C@H](O)[C@H]1O [1.0% naringin, 7-[[2-O-(6-desoxy-α-L-mannopyra-nosyl)-β-D-glucopyranosyl]oxy]-2,3-dihydro-5-hydroxy-2-(4-hydroxy-phenyl)-4H-1-benzopyran-4-one] | 0 | 0 | 0 | 5 | 5 | 5 | did not kill
O=C1C[C@@H](c2ccc(O)cc2)Oc2cc(O)cc(O)c21 [1.0% naringenin, (S)-2,3-dihydro-5,7-dihydroxy-2-(4-hydroxyphenyl)-4H-1-benzopyran-4-one] | 0 | 0 | 0 | 5 | 5 | 5 | 
COc1ccc([C@@H]2CC(=O)c3c(O)cc(O[C@@H]4O[C@H](CO[C@@H]5O[C@@H](C)[C@H](O)[C@@H](O)[C@H]5O)[C@@H](O)[C@H](O)[C@H]4O)cc3O2)cc1O [1.0% hesperidin, (2S)-7-((6-O-(6-desoxy-α-L-mannopyranosyl)-β-D-glucopyranosyl)oxy)-2,3-dihydro-5-hydroxy-2-(3-hydroxy-4-methoxyphenyl)-4H-1-benzopyran-4-one] | 0 | 0 | 0 | 5 | 5 | 5 | 
CCCCCCCCCCCCCCCC(=O)NCCC[N+](C)(C)C.[Cl-] [2.0% palmitamidopr., palmitamidopropyltrimonium chloride] | 0 | 1 | 0 | 5 | 5 | 4 | 
